# Results from the supplement of paper PMC7287046.
# Columns and labels:
# Conditions in all cases: exposure time: 72 h
# T98G [1] = assay: Loewe synergy score (Combenefit); higher = more synergy; extreme values may be limits of the assay
# Description: (§1)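 The same 6x6 dose matrices of drug pairs on glioma cell lines (72 h, CellTiter-Glo viability normalised to DMSO, triplicate) were scored with Combenefit. The Loewe, Bliss and HSA synergy scores are given; paper thresholds are Loewe 7.8 and Bliss 2.5.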
# SF268 [2] = assay: as above
# Description: as §1
# SNB75 [3] = assay: as above
# Description: as §1
# U251 [4] = assay: as above
# Description: as §1
# U118 [5] = assay: as above
# Description: as §1
# SF539 [6] = assay: as above
# Description: as §1
# KNS-42 [7] = assay: as above
# Description: as §1
# AM-38 [8] = assay: as above
# Description: as §1
# U87 [9] = assay: as above
# Description: as §1
# SF268 [10] = assay: Chou-Talalay combination index (dimensionless); higher = less synergy (more antagonism)
# Description: (§2)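 Glioma cell lines were treated for 72 h with a 6x6 matrix of two drugs, each in twofold dilutions with the top dose at the single-drug IC50. Viability was read by CellTiter-Glo and normalised to DMSO controls, in triplicate. The Chou-Talalay combination index was computed by the median effect principle; CI < 0.8 means synergy.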
# SNB75 [11] = assay: as above
# Description: as §2
# U251 [12] = assay: as above
# Description: as §2
# U118 [13] = assay: as above
# Description: as §2
# SF539 [14] = assay: as above
# Description: as §2
# AM38 = assay: as above
# Description: as §2
# KNS42 = assay: as above
# Description: as §2
# T98 = assay: as above
# Description: as §2
# U87 [15] = assay: as above
# Description: as §2
# T98G [16] = assay: HSA synergy score (Combenefit); higher = more synergy
# Description: as §1
# SF268 [17] = assay: as above
# Description: as §1
# SNB75 [18] = assay: as above
# Description: as §1
# U251 [19] = assay: as above
# Description: as §1
# U118 [20] = assay: as above
# Description: as §1
# SF539 [21] = assay: as above
# Description: as §1
# KNS-42 [22] = assay: as above
# Description: as §1
# AM-38 [23] = assay: as above
# Description: as §1
# U87 [24] = assay: as above
# Description: as §1
# T98G [25] = assay: Bliss synergy score (Combenefit); higher = more synergy; extreme values may be limits of the assay
# Description: as §1
# SF268 [26] = assay: as above
# Description: as §1
# SNB75 [27] = assay: as above
# Description: as §1
# U251 [28] = assay: as above
# Description: as §1
# U118 [29] = assay: as above
# Description: as §1
# SF539 [30] = assay: as above
# Description: as §1
# KNS-42 [31] = assay: as above
# Description: as §1
# AM-38 [32] = assay: as above
# Description: as §1
# U87 [33] = assay: as above
# Description: as §1
Structure (SMILES),Loewe synergy score (T98G [1]),Loewe synergy score (SF268 [2]),Loewe synergy score (SNB75 [3]),Loewe synergy score (U251 [4]),Loewe synergy score (U118 [5]),Loewe synergy score (SF539 [6]),Loewe synergy score (KNS-42 [7]),Loewe synergy score (AM-38 [8]),Loewe synergy score (U87 [9]),Chou-Talalay combination index (SF268 [10]),Chou-Talalay combination index (SNB75 [11]),Chou-Talalay combination index (U251 [12]),Chou-Talalay combination index (U118 [13]),Chou-Talalay combination index (SF539 [14]),Chou-Talalay combination index (AM38),Chou-Talalay combination index (KNS42),Chou-Talalay combination index (T98),Chou-Talalay combination index (U87 [15]),HSA synergy score (T98G [16]),HSA synergy score (SF268 [17]),HSA synergy score (SNB75 [18]),HSA synergy score (U251 [19]),HSA synergy score (U118 [20]),HSA synergy score (SF539 [21]),HSA synergy score (KNS-42 [22]),HSA synergy score (AM-38 [23]),HSA synergy score (U87 [24]),Bliss synergy score (T98G [25]),Bliss synergy score (SF268 [26]),Bliss synergy score (SNB75 [27]),Bliss synergy score (U251 [28]),Bliss synergy score (U118 [29]),Bliss synergy score (SF539 [30]),Bliss synergy score (KNS-42 [31]),Bliss synergy score (AM-38 [32]),Bliss synergy score (U87 [33])
Cc1cc([C@@H](C)Nc2ccccc2C(=O)O)c2nc(N3CCOCC3)cc(=O)n2c1 [AZD6482] + CCOc1nc(NC(=O)Cc2cc(OC)ccc2OC)cc(N)c1C#N [JNK inhibitor VIII],11.5,0.654,6.97,0.00428,2.68,1.84,0.866,15.4,1,0.792,1,0.731,0.669,0.545,0.77,0.994,0.758,0.576,11.5,4.35,6.97,0.00428,8.89,7.49,0.866,17,1,10.8,0.107,6.97,0.00428,2.95,0.0312,0.255,14.5,1
O=c1[nH]c2ccccc2n1C1CCN(Cc2ccc(-c3[nH]c4cc5ncnc5cc4nc3-c3ccccc3)cc2)CC1 [Akt inhibitor VIII] + N#CC(c1ccnc(NCCc2cccnc2)n1)c1nc2ccccc2s1 [AS601245],9.66,0.94,0.62,3.96,7.71,0.638,1.66,11.2,6.85,0.805,0.89,0.641,0.264,0.966,0.584,0.979,0.031,0.0154,17.9,8.59,5.96,3.96,12.4,0.651,3.65,14,12.3,9.74,1.39,1.31,3.96,5.46,0.0617,0.964,8.16,10.4
C[C@@H](Oc1cc(-c2cnn(C3CCNCC3)c2)cnc1N)c1c(Cl)ccc(F)c1Cl [Crizotinib] + C=CCc1cccc(/C=N/NC(=O)CN2CCN(Cc3ccccc3)CC2)c1O [PAC-1],2.4,0.692,0.297,1.22,0.609,0.62,15.3,0.141,4.47,1.04,0.951,0.821,0.584,0.877,0.937,0.421,0.476,0.154,2.4,1.21,5.78,1.43,2.29,3.88,16.5,0.987,4.47,2.4,0,0.417,0.0857,0.539,1.39,7.19,0.773,4.47
C[C@@H](Oc1cc(-c2cnn(C3CCNCC3)c2)cnc1N)c1c(Cl)ccc(F)c1Cl [Crizotinib] + CCOc1nc(NC(=O)Cc2cc(OC)ccc2OC)cc(N)c1C#N [JNK inhibitor VIII],2.42,1.66,4.28,6.52,4.11,2.32,2.75,0.954,0,0.637,0.972,0.838,0.732,0.458,1.13,0.929,0.945,2.67,2.65,6.62,10.4,6.52,9.81,13.6,5.67,1.09,0,0.922,2.4,0,4.44,5.36,5.02,1.72,0,0
C[C@@H](Oc1cc(-c2cnn(C3CCNCC3)c2)cnc1N)c1c(Cl)ccc(F)c1Cl [Crizotinib] + Cc1cc([C@@H](C)Nc2ccccc2C(=O)O)c2nc(N3CCOCC3)cc(=O)n2c1 [AZD6482],4.32,3.44,3.14,16.2,3.69,2.57,3.35,3.58,5.48,0.786,0.802,0.567,0.844,0.842,0.52,0.887,0.543,0.652,4.32,6.69,9.49,16.2,3.87,10.7,4.57,11.9,5.48,4.32,0.801,0.559,12.8,0.491,0.821,3.3,4.62,5.48
CC(=O)O[C@@]12CO[C@@H]1C[C@H](O)[C@@]1(C)C(=O)[C@H](O)C3=C(C)[C@@H](OC(=O)[C@H](O)[C@@H](NC(=O)OC(C)(C)C)c4ccccc4)C[C@@](O)([C@@H](OC(=O)c4ccccc4)[C@H]21)C3(C)C [Docetaxel] + C#Cc1cccc(Nc2ncnc3cc(OCCOC)c(OCCOC)cc23)c1 [Erlotinib],8.54,5.33,5.52,5.05,0.504,1.4,7.84,0,0.182,0.934,0.781,0.678,0.956,0.998,0.962,0.834,0.713,1.1,9.15,9.27,5.52,5.05,6.82,2.49,7.84,0,3.14,0.0594,0.0561,4.1,2.48,0.59,0,2.96,0,0
CC(=O)O[C@@]12CO[C@@H]1C[C@H](O)[C@@]1(C)C(=O)[C@H](O)C3=C(C)[C@@H](OC(=O)[C@H](O)[C@@H](NC(=O)OC(C)(C)C)c4ccccc4)C[C@@](O)([C@@H](OC(=O)c4ccccc4)[C@H]21)C3(C)C [Docetaxel] + CCC(=O)N1CCN(c2ccc(-n3c(=O)ccc4cnc5ccc(-c6cnc7ccccc7c6)cc5c43)cc2C(F)(F)F)CC1 [Torin1],8.3,6.57,1.3,5.9,1.75,2.76,10.2,3.28,20.6,0.8,0.749,0.732,0.949,0.976,0.895,0.95,0.53,0.448,9.53,12.8,3.38,6.14,4.14,2.76,14.4,9.71,28.7,0.32,2.06,0.14,0.704,0.102,0,0.0301,0,14
CC(=O)O[C@@]12CO[C@@H]1C[C@H](O)[C@@]1(C)C(=O)[C@H](O)C3=C(C)[C@@H](OC(=O)[C@H](O)[C@@H](NC(=O)OC(C)(C)C)c4ccccc4)C[C@@](O)([C@@H](OC(=O)c4ccccc4)[C@H]21)C3(C)C [Docetaxel] + CCCCCCCCCCCC1=C(O)C(=O)C=C(O)C1=O [Embelin],2.71,0,0.195,0.944,0.129,2.91,3.76,0.74,0.7,1.01,0.849,0.659,0.982,0.835,1.08,0.349,0.911,0.827,2.71,1.82,3.76,9.62,0.358,3.01,6.6,1.16,0.7,0.71,0.0571,0.144,3.66,0.219,0.24,3.74,0,0.7
CC(=O)O[C@@]12CO[C@@H]1C[C@H](O)[C@@]1(C)C(=O)[C@H](O)C3=C(C)[C@@H](OC(=O)[C@H](O)[C@@H](NC(=O)OC(C)(C)C)c4ccccc4)C[C@@](O)([C@@H](OC(=O)c4ccccc4)[C@H]21)C3(C)C [Docetaxel] + N#CC(c1ccnc(NCCc2cccnc2)n1)c1nc2ccccc2s1 [AS601245],10.3,0.451,5.22,0.486,0.96,2.08,3.02,0.0158,0.835,0.887,0.738,0.673,0.875,0.69,1.13,0.832,0.553,0.00672,13,4.46,10.1,8.45,2.85,7.49,11.3,0.465,1.81,4.9,0.207,2.39,5.06,0.0703,0.511,3.75,0.0376,0.347
